From patent US20130065883A1 (Centro Nacional de Investigaceiones Oncologicas (CNIO), priority 2010, published 2013)
Where two headings read alike, the source gives them in different places.

Legend:
[1] = Metabolic stability assay; type: in vitro ADME; settings: percentage metabolic stability in human liver microsomes
Method: The metabolic stability assay was performed in Wuxi. 1 μM, 15 min. The kinase selectivity testing was performed in ProQinase GmbH, Germany.

panel of 24 kinases = assay: Kinase selectivity testing (percentage inhibition of 24 kinases at 1 μM); type: biochemical; settings: proquinase; for % inhibiton at 1 uM AKT2: AKT2, 1 uM; for % inhibiton at 1 uM CHK1: CHK1, 1 uM; for % inhibiton at 1 uM CK1 Alpha 1: CK1 Alpha 1, 1 uM; for % inhibiton at 1 uM FGFR1: FGFR1, 1 uM; for % inhibiton at 1 uM JAK2: JAK2, 1 uM; for % inhibiton at 1 uM MEK1: MEK1, 1 uM; for % inhibiton at 1 uM PAK1: PAK1, 1 uM; for % inhibiton at 1 uM PDK1: PDK1, 1 uM; for % inhibiton at 1 uM RPS5 KA1: RPS5 KA1, 1 uM; for % inhibiton at 1 uM SGK1: SGK1, 1 uM
PIM-3 = molecular target: T1, PIM-3 (Homo sapiens, UniProt Q86V86); assay: PIM-3 biochemical assay (ADP Hunter); settings: read-out: PIM3 IC50;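 also: kinase activity read out as the quantity of ADP generated by the enzyme reaction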
T1 construct: purchased Millipore 14-738

FLT3 = molecular target: T2, FLT3 (Homo sapiens, UniProt P36888); assay: FLT3 biochemical assay (ADP Hunter);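 also: FLT3 enzymatic activity quantified through the ADP produced by the kinase reaction, detected with an ADP Hunter readout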
T2 sequence (P36888 27-993): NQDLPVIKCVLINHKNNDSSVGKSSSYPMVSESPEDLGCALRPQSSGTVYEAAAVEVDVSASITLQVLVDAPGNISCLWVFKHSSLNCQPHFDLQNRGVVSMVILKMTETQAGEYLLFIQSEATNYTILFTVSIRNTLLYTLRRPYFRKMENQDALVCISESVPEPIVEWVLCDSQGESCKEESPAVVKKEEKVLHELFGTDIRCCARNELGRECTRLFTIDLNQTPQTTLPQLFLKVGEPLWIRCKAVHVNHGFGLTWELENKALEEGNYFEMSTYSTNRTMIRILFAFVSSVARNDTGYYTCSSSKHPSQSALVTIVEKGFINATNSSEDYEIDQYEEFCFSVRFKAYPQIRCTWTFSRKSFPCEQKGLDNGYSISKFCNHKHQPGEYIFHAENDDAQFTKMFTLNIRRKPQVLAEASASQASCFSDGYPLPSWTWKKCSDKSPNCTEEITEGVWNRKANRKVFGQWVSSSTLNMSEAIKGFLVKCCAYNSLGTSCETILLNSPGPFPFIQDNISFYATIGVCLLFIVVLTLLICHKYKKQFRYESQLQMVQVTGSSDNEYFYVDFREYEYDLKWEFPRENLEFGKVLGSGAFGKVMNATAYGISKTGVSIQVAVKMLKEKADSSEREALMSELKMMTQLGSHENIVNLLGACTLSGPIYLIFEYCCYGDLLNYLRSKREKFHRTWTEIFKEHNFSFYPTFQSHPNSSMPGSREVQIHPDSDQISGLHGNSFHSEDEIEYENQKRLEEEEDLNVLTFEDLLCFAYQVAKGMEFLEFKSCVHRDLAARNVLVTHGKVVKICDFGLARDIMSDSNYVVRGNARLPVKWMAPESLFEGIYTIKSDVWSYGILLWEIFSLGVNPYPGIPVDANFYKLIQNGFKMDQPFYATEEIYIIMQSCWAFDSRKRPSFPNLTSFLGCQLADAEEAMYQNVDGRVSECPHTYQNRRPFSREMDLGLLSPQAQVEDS

PIM-2 = molecular target: T3, PIM-2 (Homo sapiens, UniProt Q9P1W9); assay: PIM-2 biochemical assay (ADP Hunter); settings: semi-quantitative class; read-out: PIM2 IC50;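 also: recombinant N-terminally His-tagged human enzyme, kinase activity quantified by detection of ADP formed as the direct reaction product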
T3 construct: histidine tag (N); made in house
T3 sequence (Q9P1W9 whole entry): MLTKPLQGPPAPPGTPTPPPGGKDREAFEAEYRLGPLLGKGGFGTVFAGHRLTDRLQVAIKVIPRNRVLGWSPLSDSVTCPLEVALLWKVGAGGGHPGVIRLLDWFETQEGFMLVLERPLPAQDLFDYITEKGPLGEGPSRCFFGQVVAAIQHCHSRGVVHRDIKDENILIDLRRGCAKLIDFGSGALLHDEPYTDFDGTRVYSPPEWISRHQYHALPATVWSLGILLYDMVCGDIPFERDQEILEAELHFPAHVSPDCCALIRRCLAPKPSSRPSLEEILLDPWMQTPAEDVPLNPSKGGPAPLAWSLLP

PIM-1 = molecular target: T4, PIM-1 (Homo sapiens, UniProt P11309); assay: PIM-1 biochemical assay (ADP Hunter); settings: read-out: PIM1 IC50;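 also: recombinant human PIM-1 carrying a C-terminal His tag, kinase activity quantified via ADP formed as the direct enzymatic product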
T4 construct: histidine tag (C); made in house
T4 sequence (P11309 whole entry): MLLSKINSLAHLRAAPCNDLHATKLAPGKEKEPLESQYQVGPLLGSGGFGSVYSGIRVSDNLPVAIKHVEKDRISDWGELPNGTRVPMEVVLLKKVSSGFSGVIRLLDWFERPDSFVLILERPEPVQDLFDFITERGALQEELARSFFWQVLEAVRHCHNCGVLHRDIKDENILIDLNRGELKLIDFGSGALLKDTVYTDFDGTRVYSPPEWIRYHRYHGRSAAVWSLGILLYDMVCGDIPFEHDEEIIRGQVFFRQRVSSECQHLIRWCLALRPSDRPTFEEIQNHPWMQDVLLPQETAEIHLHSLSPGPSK

[2] = tested on: H1299 cells overexpressing Pim1 (H1299Pim1); assay: BAD S112 phosphorylation inhibition assay (In Cell ELISA); type: cell-based; settings: Homo sapiens, NCI-H1299, inhibition of Bad-phosphorylation, read-out: Cell assay BAD_P H1299 PIM1
tumor cell lines = assay: Combination assay (MTT in vitro cell proliferation, combination index); type: cell-based; settings: Homo sapiens, NCI-H23, NCIH23, non small cell lung carcinoma; read-out: Pim Inh EC50
[3] = actual IC50 value in parentheses

Row | SMILES | Stability in HLM [1] [%] | % inhibiton at 1 uM AKT2 (panel of 24 kinases) [%] | % inhibiton at 1 uM B_RAF V600E (panel of 24 kinases) [%] | % inhibiton at 1 uM CDK8 CYCC (panel of 24 kinases) [%] | % inhibiton at 1 uM CHK1 (panel of 24 kinases) [%] | % inhibiton at 1 uM CK1 Alpha 1 (panel of 24 kinases) [%] | % inhibiton at 1 uM DYRK 1A (panel of 24 kinases) [%] | % inhibiton at 1 uM EGF_R (panel of 24 kinases) [%] | % inhibiton at 1 uM FAK (panel of 24 kinases) [%] | % inhibiton at 1 uM FGFR1 (panel of 24 kinases) [%] | % inhibiton at 1 uM IGF1_R (panel of 24 kinases) [%] | % inhibiton at 1 uM IKK BETA (panel of 24 kinases) [%] | % inhibiton at 1 uM INS_R (panel of 24 kinases) [%] | % inhibiton at 1 uM JAK2 (panel of 24 kinases) [%] | % inhibiton at 1 uM KIT (panel of 24 kinases) [%] | % inhibiton at 1 uM MEK1 (panel of 24 kinases) [%] | % inhibiton at 1 uM MET (panel of 24 kinases) [%] | % inhibiton at 1 uM PDGFR Alpha (panel of 24 kinases) [%] | % inhibiton at 1 uM RPS5 KA1 (panel of 24 kinases) [%] | % inhibiton at 1 uM SGK1 (panel of 24 kinases) [%] | other results
1 | FC(F)(F)Oc1cccc(-n2nnc3ccc(NCC4CC5(CCNCC5)C4)nc32)c1 [2-67] | 92.15 | 0 | 11 | 0 | 11 | 0 | 18 | 13 | 27 | 0 | 25 | 0 | 5 | 0 | 58 | 0 | 2 | 49 | 11 | 7 | % inhibiton at 1 uM PAK1 (panel of 24 kinases): 3%; % inhibiton at 1 uM PDK1 (panel of 24 kinases): 0%; % inhibiton at 1 uM SRC (panel of 24 kinases): 16%
2 | FC(F)(F)Oc1cccc(-n2nnc3ccc(N4CCCC5(CCCN5)CC4)nc32)c1 (centres unmarked) [2-65] | 88.9 | 0 | 3 | 2 | 7 | 0 | 12 | 12 | 31 | 22 | 21 | 0 | 12 | 8 | 63 | 13 | 11 | 57 | 10 | 0 | IC50 (PIM-3; [3]): 6 nM; IC50 (PIM-3; semi-quantitative class): < 100 nM; IC50 (FLT3; [3]): 28 nM; IC50 (FLT3; semi-quantitative class): < 100 nM; IC50 (PIM-2): 100 to 1000 nM; % inhibiton at 1 uM PAK1 (panel of 24 kinases): 0%; % inhibiton at 1 uM PDK1 (panel of 24 kinases): 0%; % inhibiton at 1 uM SRC (panel of 24 kinases): 33%; IC50 (PIM-1; [3]): 2 nM; IC50 (PIM-1; semi-quantitative class): < 100 nM
3 | OC1CCC(Nc2ccc3nnn(-c4cccc(OC(F)(F)F)c4)c3n2)CC1 (stereo in doubt) [2-47] | 43.6 |  | 6 |  |  | 2 | 3 | 9 | 6 | 0 | 8 | 4 | 7 | 15 | 2 | 0 | 0 | 0 | 0 | 3 | 
4 | FC(F)(F)Oc1cccc(-n2nnc3cc(Cl)c(NCC4CCNCC4)nc32)c1 [2-54] | 93.95 |  | 7 |  |  | 6 | 30 | 18 | 28 | 32 | 26 | 17 | 16 | 15 | 34 | 0 | 19 | 23 | 8 | 7 | EC50 [2]: 599 nM; EC50 (tumor cell lines): 5000 nM
